“And” between values parts separate entries of the source, which are not always exact repeats. Equal entries are not always repeated. Where two headings read alike, the source gives them in different places.
Tests used:
[1] = biological target: T1, CYP2C19 (Homo sapiens, UniProt P33261); experiment: Intrinsic clearance, substrate depletion approach; settings: rCYP2C19, substrate depletion
[2] = biological target: T2, CYP1A2 (Homo sapiens, UniProt P05177); experiment: Enzyme kinetics of hydroxylated metabolites formation; format: in vitro ADME; set-up: purchased CYPEX CYP001; host or cells: Escherichia coli; settings: CYP1A2, formation of cis‐4‐OH‐PZQ
T2 sequence (P05177 1-516): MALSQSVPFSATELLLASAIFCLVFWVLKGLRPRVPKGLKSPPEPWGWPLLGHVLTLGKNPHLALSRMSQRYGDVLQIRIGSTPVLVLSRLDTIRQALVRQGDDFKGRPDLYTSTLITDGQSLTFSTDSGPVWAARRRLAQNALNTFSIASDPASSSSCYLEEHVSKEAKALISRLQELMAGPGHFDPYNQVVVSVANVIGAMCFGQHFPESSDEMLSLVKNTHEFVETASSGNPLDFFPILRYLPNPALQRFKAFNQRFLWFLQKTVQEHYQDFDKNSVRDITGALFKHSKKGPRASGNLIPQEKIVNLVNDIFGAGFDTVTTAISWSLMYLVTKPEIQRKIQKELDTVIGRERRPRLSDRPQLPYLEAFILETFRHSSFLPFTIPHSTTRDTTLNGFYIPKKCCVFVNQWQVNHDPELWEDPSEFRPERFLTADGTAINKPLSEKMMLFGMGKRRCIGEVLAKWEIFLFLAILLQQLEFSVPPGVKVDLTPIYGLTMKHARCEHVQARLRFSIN
Protocol: The reactions were carried out in duplicate at each time point. Incubation conditions used for the determination of K M and V max were optimized for linearity with respect to time and protein concentrations. […] Metabolites were analyzed by LC‐MS/MS as described below. The K M and V max values of each marker substrate were determined using nonlinear least squares regression analysis in GraFit software (version 3.0, Erithacus Software Limited) and SigmaPlot Enzyme Kinetics Module for Windows 7.0 (SPSS, Inc).
(§1) The well‐stirred model was used to estimate the hepatic clearance (CLH) due to metabolism.

[3] = biological target: T2, CYP1A2; experiment: in vitro; settings: recombinant CYP1A2, pH 7.4
[4] = biological target: T1, CYP2C19; experiment: in vitro; settings: recombinant CYP2C19, pH 7.4
[5] = biological target: CYP2D6 (Homo sapiens, UniProt P10635); experiment: in vitro; settings: recombinant CYP2D6, pH 7.4
Chain of CYP2D6 (P10635 whole entry): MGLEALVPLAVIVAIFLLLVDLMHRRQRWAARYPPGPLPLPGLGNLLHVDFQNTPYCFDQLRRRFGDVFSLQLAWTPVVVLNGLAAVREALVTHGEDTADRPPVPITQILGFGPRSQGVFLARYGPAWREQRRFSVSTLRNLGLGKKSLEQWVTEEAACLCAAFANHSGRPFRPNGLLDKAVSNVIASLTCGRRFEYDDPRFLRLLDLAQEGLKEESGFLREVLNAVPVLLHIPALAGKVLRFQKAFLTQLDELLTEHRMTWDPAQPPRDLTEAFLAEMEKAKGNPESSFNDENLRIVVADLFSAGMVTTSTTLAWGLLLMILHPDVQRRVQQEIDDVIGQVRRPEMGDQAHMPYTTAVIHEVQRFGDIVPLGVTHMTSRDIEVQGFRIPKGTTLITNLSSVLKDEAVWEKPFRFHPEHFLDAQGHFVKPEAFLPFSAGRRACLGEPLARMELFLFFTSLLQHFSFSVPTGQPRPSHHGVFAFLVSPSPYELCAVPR

[6] = Simcyp prediction of total hepatic clearance; set-up: species or system human
Protocol: The clearance of the incubation mixture was expressed as μL/min/pmol for rCYP.
as §1

[7] = PZQ-ketoconazole DDI pharmacokinetic study in healthy volunteers; format: in vivo, human; settings: for AUC(0-inf) / AUC / CL/F / k el / half-life / Tmax / Vd/F: male, human, plasma
Protocol: Plasma samples were obtained from the AiBST biobank. […] Each participant served as their own control. Each participant provided written informed consent to take part in the study and the study was carried out according to Helsinki Declaration of 1975, as revised in 2008. The study was approved by the Medical Research Council of Zimbabwe (MRCZ) and the Medicines Controls Authority of Zimbabwe (MCAZ). […] The samples were vortexed for 30 seconds and left under gentle agitation for 25 minutes. […] From the supernatant, 20 μL was injected onto the chiral HPLC system for analysis. […] Detection was done using a UV diode array detector at 210 nm. […] The data were gathered and processed using Agilent OpenLab CDS for Chemstation software version 1.9. Linear calibration curves were plotted as concentration vs peak area ratio for analyte to IS with no weighting. […] The pharmacokinetic (PK) analysis was performed using the WinNonlin program, version 8.2 (Pharsight Corp). […] A non-compartmental approach was used for curve plotting and parameter calculation. The area under the curve (AUC) from time 0 to the last sampling time point (AUCt) was computed using the log-linear trapezoidal rule. The linear trapezoidal rule was used for the ascending part of the PK curve, while the log trapezoidal rule was used for the descending part of the graph. The AUC extrapolated to infinite time was calculated as AUC∞ = AUCt + Ct/K el where Ct is the concentration of the last sample taken and K el is the terminal elimination rate constant. The terminal elimination rate constant K el was determined by least squares regression analysis in the terminal phase of the semi log concentration-time curve. […] Statistical analysis was performed using the GraFit software (version 3.0, Erithacus Software Limited). […] Analysis of variance (ANOVA) was performed on the AUC and C max after transformation of the data to their natural logarithmic (ln) values.

[8] = PZQ + ketoconazole vs PZQ alone
[9] = PZQ + ketoconazole vs PZQ alone, listed as S‐Praziquantel
[10] = single oral 20 mg/kg PZQ alone, n = 9, listed as S‐Praziquantel, 20 mg/kg

T1 sequence (P33261 whole entry): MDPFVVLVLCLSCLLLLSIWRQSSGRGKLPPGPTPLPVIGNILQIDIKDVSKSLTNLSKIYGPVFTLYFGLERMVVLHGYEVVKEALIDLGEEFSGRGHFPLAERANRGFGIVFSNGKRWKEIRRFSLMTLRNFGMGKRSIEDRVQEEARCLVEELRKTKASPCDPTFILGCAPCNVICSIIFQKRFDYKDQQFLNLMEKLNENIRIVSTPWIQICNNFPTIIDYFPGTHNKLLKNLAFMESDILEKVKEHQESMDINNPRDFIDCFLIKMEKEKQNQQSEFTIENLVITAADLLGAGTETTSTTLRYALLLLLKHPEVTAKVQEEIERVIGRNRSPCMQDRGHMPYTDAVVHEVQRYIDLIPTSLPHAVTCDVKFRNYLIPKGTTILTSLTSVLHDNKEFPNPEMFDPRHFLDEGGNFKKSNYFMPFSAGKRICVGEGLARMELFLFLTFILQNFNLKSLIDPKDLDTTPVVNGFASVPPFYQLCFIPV

Compound: O=C(C1CCCCC1)N1CC(=O)N2CCc3ccccc3[C@H]2C1 [S‐PZQ, S‐Praziquantel]
- Predicted CLH [1]: 5.600 mL/min/kg
- Predicted CLuH,int [1]: 30.71 mL/min/kg
- CLuH,int [2]: 0.83 mL/min/kg and 0.8300 mL/min/kg
- half-life at 1 µmol/L [3]: 0.267 h
- half-life at 1 µmol/L [4]: 4.13 min
- half-life at 1 µmol/L [5]: 0.755 h
- Predicted total CLH (Simcyp) ([6]; metabolite formation assay): 10.144 mL/min/kg
- Predicted total CLH (Simcyp) ([6]; substrate depletion assay): 6.265 mL/min/kg
- Clearance/F, treatment mean (SD) ([7]; 20 mg/kg PZQ plus 200 mg ketoconazole, n = 9): 211.5 (74.47) L/h
- AUCinf, difference observed % [7, 8]: 68%
- AUCt0‐tlast, difference observed % [7, 8]: 56.09%
- C max, difference observed % [7, 8]: 107.11%
- Clearance/F, difference observed % [7, 8]: −37.81%
- Half life, difference observed % [7, 8]: 31.52%
- AUCinf, difference observed % [7, 9]: 67.71%
- C max, difference observed % [7, 9]: 107.1%
- AUC(0-inf) ([7]; oral, 20 mg/kg, 20 mg/kg PZQ plus 200 mg ketoconazole, n = 9, read-out: AUCinf, treatment geo mean): 5960 ng·h/mL
- AUC(0-inf) ([7]; oral, 20 mg/kg, 20 mg/kg PZQ plus 200 mg ketoconazole, n = 9, read-out: AUCinf, treatment mean (SD)): 6460 ng·h/mL
- AUC ([7]; oral, 20 mg/kg, 20 mg/kg PZQ plus 200 mg ketoconazole, n = 9, read-out: AUCt0‐tlast, treatment geo mean): 4680 ng·h/mL
- AUC ([7]; oral, 20 mg/kg, 20 mg/kg PZQ plus 200 mg ketoconazole, n = 9, read-out: AUCt0‐tlast, treatment mean (SD)): 4910 ng·h/mL
- CL/F ([7]; oral, 20 mg/kg, 20 mg/kg PZQ plus 200 mg ketoconazole, n = 9, read-out: Clearance/F, treatment geo mean (converted)): 3340 mL/min
- CL/F ([7]; oral, 20 mg/kg, 20 mg/kg PZQ plus 200 mg ketoconazole, n = 9, read-out: Clearance/F, treatment mean (SD) (converted)): 3530 mL/min
- k el ([7]; oral, 20 mg/kg, 20 mg/kg PZQ plus 200 mg ketoconazole, n = 9, read-out: Elimination rate constant, treatment geo mean (converted)): 6.11e-05 s⁻¹
- k el ([7]; oral, 20 mg/kg, 20 mg/kg PZQ plus 200 mg ketoconazole, n = 9, read-out: Elimination rate constant, treatment mean (SD) (converted)): 6.94e-05 s⁻¹
- half-life ([7]; oral, 20 mg/kg, 20 mg/kg PZQ plus 200 mg ketoconazole, n = 9, read-out: Half life, treatment geo mean (converted)): 3.17 h
- half-life ([7]; oral, 20 mg/kg, 20 mg/kg PZQ plus 200 mg ketoconazole, n = 9, read-out: Half life, treatment mean (SD) (converted)): 3.63 h
- Tmax ([7]; oral, 20 mg/kg, 20 mg/kg PZQ plus 200 mg ketoconazole, n = 9, read-out: T max, treatment geo mean): 2.35 h
- Tmax ([7]; oral, 20 mg/kg, 20 mg/kg PZQ plus 200 mg ketoconazole, n = 9, read-out: T max, treatment mean (SD)): 2.44 h
- Vd/F ([7]; oral, 20 mg/kg, 20 mg/kg PZQ plus 200 mg ketoconazole, n = 9, read-out: V d/F, treatment geo mean): 915 L
- Vd/F ([7]; oral, 20 mg/kg, 20 mg/kg PZQ plus 200 mg ketoconazole, n = 9, read-out: V d/F, treatment mean (SD)): 967 L
- AUC ([7]; oral, 20 mg/kg, AUC, PZQ alone): 3850 ± 1430 ng·h/mL
- AUC ([7]; oral, 20 mg/kg, read-out: AUC from the in vivo pharmacokinetic study): 3300 ng·h/mL
- AUC ([7]; oral, AUC, PZQ + KTZ): 6460 ± 3100 ng·h/mL
- AUC(0-inf) ([7]; po, 20 mg/kg, single oral 20 mg/kg PZQ alone, n = 9, read-out: AUCinf, reference geo mean): 3610 ng·h/mL
- AUC(0-inf) ([7]; po, 20 mg/kg, single oral 20 mg/kg PZQ alone, n = 9, read-out: AUCinf, reference mean (SD)): 3850 ng·h/mL
- AUC ([7]; po, 20 mg/kg, single oral 20 mg/kg PZQ alone, n = 9, read-out: AUCt0‐tlast, reference geo mean): 2970 ng·h/mL
- AUC ([7]; po, 20 mg/kg, single oral 20 mg/kg PZQ alone, n = 9, read-out: AUCt0‐tlast, reference mean (SD)): 3150 ng·h/mL
- CL/F ([7]; po, 20 mg/kg, single oral 20 mg/kg PZQ alone, n = 9, read-out: Clearance/F, reference geo mean (converted)): 5480 mL/min
- CL/F ([7]; po, 20 mg/kg, single oral 20 mg/kg PZQ alone, n = 9, read-out: Clearance/F, reference mean (SD) (converted)): 5670 mL/min
- k el ([7]; po, 20 mg/kg, single oral 20 mg/kg PZQ alone, n = 9, read-out: Elimination rate constant, reference geo mean (converted)): 8.33e-05 s⁻¹
- k el ([7]; po, 20 mg/kg, single oral 20 mg/kg PZQ alone, n = 9, read-out: Elimination rate constant, reference mean (SD) (converted)): 0.0001 s⁻¹
- half-life ([7]; po, 20 mg/kg, single oral 20 mg/kg PZQ alone, n = 9, read-out: Half life, reference geo mean (converted)): 2.3 h
- half-life ([7]; po, 20 mg/kg, single oral 20 mg/kg PZQ alone, n = 9, read-out: Half life, reference mean (SD) (converted)): 2.76 h
- Tmax ([7]; po, 20 mg/kg, single oral 20 mg/kg PZQ alone, n = 9, read-out: T max, reference geo mean): 2.96 h
- Tmax ([7]; po, 20 mg/kg, single oral 20 mg/kg PZQ alone, n = 9, read-out: T max, reference mean (SD)): 3 h
- Vd/F ([7]; po, 20 mg/kg, single oral 20 mg/kg PZQ alone, n = 9, read-out: V d/F, reference geo mean): 1090 L
- Vd/F ([7]; po, 20 mg/kg, single oral 20 mg/kg PZQ alone, n = 9, read-out: V d/F, reference mean (SD)): 1200 L
- Clearance/F, reference mean (SD) ([7]; single oral 20 mg/kg PZQ alone, n = 9, 20 mg/kg): 340 ± 97 L/h
- C max, reference mean (SD) [7, 10]: 782.9 (171.7) ng/mL
- Clearance/F, reference mean (SD) [7, 10]: 340.1 (96.37) L/h

From paper PMC7376644 (Pharmacology Research & Perspectives, 2020)
